Measured values: BigSolDB 2.1

O.O=C([O-])[C@H](O)[C@@H](O)[C@H](O)[C@H](O)CO.O=C([O-])[C@H](O)[C@@H](O)[C@H](O)[C@H](O)CO.[Ca+2]
solubility (mole fraction)
Settings	in acetonitrile	in ethanol	in methanol	in n-propanol	in water
279.15 K	4.28e-06	9.52e-06	1.15e-05	5.01e-06	–
279.65 K	–	–	–	–	0.000997
283.15 K	4.56e-06	1.06e-05	1.26e-05	5.83e-06	–
284.65 K	–	–	–	–	0.00108
288.15 K	5.33e-06	1.29e-05	1.46e-05	7.78e-06	–
289.15 K	–	–	–	–	0.0012
293.15 K	7.75e-06	1.51e-05	1.77e-05	1.04e-05	–
294.15 K	–	–	–	–	0.00129
298.15 K	1.02e-05	1.73e-05	1.95e-05	1.33e-05	–
299.15 K	–	–	–	–	0.00146
303.15 K	1.24e-05	1.99e-05	2.34e-05	1.62e-05	0.00165
308.15 K	–	–	–	–	0.00199
308.65 K	1.64e-05	2.32e-05	2.65e-05	–	–
313.15 K	–	–	–	–	0.00227
313.65 K	1.99e-05	2.75e-05	2.99e-05	–	–
318.15 K	2.39e-05	3.04e-05	3.5e-05	–	0.00269
323.15 K	–	–	–	–	0.00311
